Laboratory results reported in EPA's ToxRefDB 2.

How the values were obtained:
mouse [1] = conditions: Carcinogenicity; b6c3f1; Oral; Feed; dose end: 2 year; group: systemic; systemic / in life observation / body weight / body weight
rat [2] = conditions: Carcinogenicity; fischer; Oral; Feed; dose end: 2 year; group: systemic; systemic / in life observation / body weight / body weight + systemic / pathology microscopic / kidney / hemosiderosis + systemic / …
rat [3] = conditions: Multigenerational reproductive toxicity study, sprague dawley, Oral, Feed, dose end: 3 generation
rat [4] = conditions: Subchronic oral toxicity in rodents, sprague dawley, Feed, dose end: 90 day, group: systemic
rat [5] = conditions: Subchronic oral toxicity in rodents, sprague dawley, Feed, dose end: 90 day, group: systemic, systemic / in life observation / body weight / body weight gain + systemic / pathology gross / eye / opacity + systemic / pathology …
mouse [6] = conditions: Carcinogenicity; cd1; Oral; Feed; dose end: 18 month; group: systemic; systemic / in life observation / body weight / body weight + systemic / in life observation / body weight / body weight gain + systemic / in…
rat [7] = conditions: Prenatal developmental toxicity study, wistar, Oral, Gavage/Intubation, dose end: 16 GD
dog [8] = conditions: Chronic toxicity, beagle, Oral, Capsule, dose end: 53 week, group: systemic
mouse [9] = conditions: Chronic toxicity; cd1; Oral; Feed; dose end: 1 year; group: systemic; systemic / in life observation / body weight / body weight gain + systemic / in life observation / food consumption / food efficiency
dog [10] = conditions: Subchronic oral toxicity in nonrodent, beagle, Capsule, dose end: 90 day, group: systemic, systemic / in life observation / clinical signs / [other] + systemic / in life observation / clinical signs / feces, discoloration + …
rat [11] = conditions: Combined chronic toxicity/carcinogenicity, sprague dawley, Oral, Feed, dose end: 2 year, group: systemic
rat [12] = conditions: Combined chronic toxicity/carcinogenicity; wistar; Oral; Diet; dose end: 104 week; group: systemic; systemic / in life observation / body weight / body weight + systemic / in life observation / food consumption / food consumption + systemic…
rat [13] = conditions: Multigenerational reproductive toxicity study, Wistar, Oral, Feed, dose end: 2 generation
rat [14] = conditions: Subchronic oral toxicity in rodents, wistar, Feed, dose end: 90 day, group: systemic
dog [15] = conditions: Chronic toxicity, beagle, Oral, Feed, dose end: 52 week, group: systemic
mouse [16] = conditions: Carcinogenicity, other, Oral, Feed, dose end: 18 month, group: systemic
rabbit = conditions: Prenatal developmental toxicity study, new zealand white, Oral, Gavage/Intubation, dose end: 28 GD
rat [17] = conditions: Combined chronic toxicity/carcinogenicity, wistar, Oral, Feed, dose end: 2 year, group: systemic
rat [18] = conditions: Prenatal developmental toxicity study, wistar, Oral, Gavage/Intubation, dose end: 15 GD
mouse [19] = conditions: Subchronic oral toxicity in rodents, other, Feed, dose end: 90 day, group: systemic
mouse [20] = conditions: Subchronic oral toxicity in rodents, b6c3f1, Feed, dose end: 90 day
rat [21] = conditions: Subchronic oral toxicity in rodents, fischer, Feed, dose end: 90 day
mouse [22] = conditions: Multigenerational reproductive toxicity study; cd1; Oral; Feed; dose end: 2 generation; group: offspring; systemic / in life observation / body weight / offspring (pup) weight
[23] = group: offspring, systemic / clinical chemistry / tyrosine / tyrosine
[24] = group: parental, systemic / clinical chemistry / tyrosine / tyrosine
[25] = group: parental, systemic / clinical chemistry / tyrosine / tyrosine + systemic / organ weight / liver / relative to body weight
[26] = group: reproductive, reproductive / offspring survival early / litter size / litter size
[27] = group: reproductive, reproductive / offspring survival early / litter size / litter size + reproductive / offspring survival early / birth index / live birth …
[28] = systemic / organ weight / liver / absolute + systemic / organ weight / liver / relative to body weight
[29] = group: developmental, developmental / developmental malformation / bone / unossified + developmental / developmental malformation / bone / bipartite ossification…
[30] = group: maternal, systemic / in life observation / body weight / body weight gain + systemic / in life observation / food consumption / food consumption + …
[31] = systemic / clinical chemistry / tyrosine / tyrosine + systemic / pathology microscopic / lymph node / erythrophagocytosis
[32] = systemic / clinical chemistry / tyrosine / tyrosine + systemic / pathology microscopic / lymph node / erythrophagocytosis + systemic / in …
[33] = systemic / in life observation / body weight / body weight + systemic / in life observation / body weight / body weight gain
[34] = group: offspring, systemic / in life observation / body weight / offspring (pup) weight gain
[35] = group: parental, systemic / in life observation / body weight / body weight gain
[36] = systemic / clinical chemistry / alkaline phosphatase (alp/alk) / alkaline phosphatase (alp/alk) + systemic / clinical chemistry / urea …
[37] = systemic / hematology / erythrocyte (rbc) count differential / erythrocyte (rbc) + systemic / hematology / hematocrit (hct) / hematocrit (…
[38] = systemic / pathology microscopic / epididymis / dilatation + systemic / pathology microscopic / epididymis / infiltration cellular + …
[39] = group: developmental, developmental / developmental malformation / bone / hole(s) + developmental / developmental malformation / bone / incomplete ossification + …
[40] = group: maternal, reproductive / reproductive performance / aborted / aborted + systemic / in life observation / body weight / body weight gain + systemic / …
[41] = systemic / in life observation / body weight / body weight + systemic / in life observation / body weight / body weight gain + systemic / …
[42] = group: developmental, systemic / in life observation / body weight / fetal weight
[43] = group: maternal, systemic / in life observation / body weight / body weight + systemic / in life observation / body weight / body weight gain
[44] = systemic / clinical chemistry / cholesterol / cholesterol + systemic / pathology microscopic / liver / hypertrophy + systemic / clinical …
[45] = group: maternal, reproductive / reproductive performance / estrous cycle / length
[46] = group: systemic, systemic / clinical chemistry / 5' nucleotidase / 5' nucleotidase + systemic / clinical chemistry / alanine aminotransferase (alt/sgpt) / …
[47] = group: systemic, systemic / in life observation / body weight / body weight gain + systemic / organ weight / liver / relative to body weight
[48] = group: systemic, systemic / organ weight / liver / relative to body weight
[49] = group: systemic, systemic / organ weight / liver / relative to body weight + systemic / clinical chemistry / bile acids / bile acids + systemic / in life …

c1ccc(N=Nc2ccccc2)cc1 [Azobenzene]
LEL (mouse [1]): 30 mg/kg/day | LOAEL (mouse [1]): 81.8 mg/kg/day | NEL (mouse [1]): < 30 mg/kg/day | LEL (rat [2]): 10 mg/kg/day | LOAEL (rat [2]): > 20 mg/kg/day | NEL (rat [2]): < 10 mg/kg/day | NOAEL (rat [2]): ≥ 20 mg/kg/day

CS(=O)(=O)c1ccc(C(=O)C2C(=O)CCCC2=O)c([N+](=O)[O-])c1 [Mesotrione]
LEL (rat [3]; [23]): 0.3 mg/kg/day | LOAEL (rat [3]; [23]): 0.3 mg/kg/day | NEL (rat [3]; [23]): < 0.3 mg/kg/day | NOAEL (rat [3]; [23]): < 0.3 mg/kg/day | LOAEL (rat [3]; [24]): 0.3 mg/kg/day | NOAEL (rat [3]; [24]): < 0.3 mg/kg/day | LEL (rat [3]; [25]): 0.3 mg/kg/day | NEL (rat [3]; [25]): < 0.3 mg/kg/day | LEL (rat [3]; [26]): 1.1 mg/kg/day | LOAEL (rat [3]; [26]): 1.1 mg/kg/day | NEL (rat [3]; [27]): 0.3 mg/kg/day | NOAEL (rat [3]; [27]): 0.3 mg/kg/day | LEL (rat [4]; [28]): 0.21 mg/kg/day | NEL (rat [4]; [28]): < 0.21 mg/kg/day | LOAEL (rat [4]; systemic / pathology microscopic / eye / neovascularization + systemic / pathology microscopic / eye / opacity): 0.63 mg/kg/day | NOAEL (rat [4]; systemic / pathology microscopic / eye / neovascularization + systemic / pathology microscopic / eye / opacity + systemic / clinical …): 0.41 mg/kg/day | LEL (rat [5]): 11 mg/kg/day | LOAEL (rat [5]): 11 mg/kg/day | NEL (rat [5]): 0.09 mg/kg/day | NOAEL (rat [5]): 0.09 mg/kg/day | LEL (mouse [6]): 898 mg/kg/day | LOAEL (mouse [6]): 898 mg/kg/day | NEL (mouse [6]): 49.7 mg/kg/day | NOAEL (mouse [6]): 49.7 mg/kg/day | LEL (rat [7]; [29]): 100 mg/kg/day | LOAEL (rat [7]; [29]): 100 mg/kg/day | NEL (rat [7]; [29]): < 100 mg/kg/day | NOAEL (rat [7]; [29]): < 100 mg/kg/day | LOAEL (rat [7]; group: maternal, systemic / in life observation / body weight / body weight gain + systemic / in life observation / food consumption / food consumption): 300 mg/kg/day | LEL (rat [7]; [30]): 300 mg/kg/day | NEL (rat [7]; [30]): 100 mg/kg/day | NOAEL (rat [7]; [30]): 100 mg/kg/day | LOAEL (dog [8]; [31]): 10 mg/kg/day | NOAEL (dog [8]; [31]): < 10 mg/kg/day | LEL (dog [8]; [32]): 10 mg/kg/day | NEL (dog [8]; [32]): < 10 mg/kg/day | LEL (mouse [9]): 1110 mg/kg/day | LOAEL (mouse [9]): 1110 mg/kg/day | NEL (mouse [9]): 56.2 mg/kg/day | NOAEL (mouse [9]): 56.2 mg/kg/day | LEL (dog [10]): 600 mg/kg/day | LOAEL (dog [10]): > 1000 mg/kg/day | NEL (dog [10]): 100 mg/kg/day | NOAEL (dog [10]): ≥ 1000 mg/kg/day | LEL (rat [11]; [33]): 0.06 mg/kg/day | NEL (rat [11]; [33]): < 0.06 mg/kg/day | LOAEL (rat [11]; systemic / organ weight / kidney / absolute + systemic / organ weight / kidney / nos + systemic / organ weight / liver / absolute + systemic…): 0.48 mg/kg/day

O=C(Nc1ccccc1)Nc1cnns1 [Thidiazuron]
LEL (rat [12]): 31.7 mg/kg/day | LOAEL (rat [12]): > 31.7 mg/kg/day | NEL (rat [12]): 10.6 mg/kg/day | NOAEL (rat [12]): ≥ 31.7 mg/kg/day | LEL (rat [13]; [34]): 108 mg/kg/day | LOAEL (rat [13]; [34]): 108 mg/kg/day | NEL (rat [13]; [34]): 35.4 mg/kg/day | NOAEL (rat [13]; [34]): 35.4 mg/kg/day | LEL (rat [13]; [35]): 108 mg/kg/day | LOAEL (rat [13]; [35]): 108 mg/kg/day | NEL (rat [13]; [35]): 35.4 mg/kg/day | NOAEL (rat [13]; [35]): 35.4 mg/kg/day | LOAEL (rat [14]; [36]): 102 mg/kg/day | NEL (rat [14]; [36]): 11.2 mg/kg/day | NOAEL (rat [14]; [36]): 34.5 mg/kg/day | LEL (rat [14]; systemic / clinical chemistry / phosphorus / phosphorus): 34.5 mg/kg/day | LOAEL (dog [15]; [37]): 11.8 mg/kg/day | NOAEL (dog [15]; [37]): 3.93 mg/kg/day | LEL (dog [15]; systemic / organ weight / spleen / absolute + systemic / organ weight / spleen / relative to body weight): 11.1 mg/kg/day | NEL (dog [15]; systemic / organ weight / spleen / absolute + systemic / organ weight / spleen / relative to body weight + systemic / hematology / …): 4.01 mg/kg/day | LOAEL (mouse [16]; systemic / pathology microscopic / epididymis / dilatation + systemic / pathology microscopic / epididymis / infiltration cellular): 86.7 mg/kg/day | LEL (mouse [16]; [38]): 86.7 mg/kg/day | NEL (mouse [16]; [38]): 26.5 mg/kg/day | NOAEL (mouse [16]; [38]): 26.5 mg/kg/day | LEL (rabbit; [39]): 125 mg/kg/day | LOAEL (rabbit; [39]): 125 mg/kg/day | NEL (rabbit; [39]): 25 mg/kg/day | NOAEL (rabbit; [39]): 25 mg/kg/day | LEL (rabbit; [40]): 125 mg/kg/day | LOAEL (rabbit; [40]): 125 mg/kg/day | NEL (rabbit; [40]): 25 mg/kg/day | NOAEL (rabbit; [40]): 25 mg/kg/day | LOAEL (rat [17]; [41]): 36.4 mg/kg/day | NOAEL (rat [17]; [41]): 8 mg/kg/day | NEL (rat [17]; systemic / pathology microscopic / kidney / mineralization + systemic / pathology microscopic / kidney / dilatation + systemic / pathology …): 105 mg/kg/day | LEL (rat [18]; [42]): 300 mg/kg/day | LOAEL (rat [18]; [42]): 300 mg/kg/day | NEL (rat [18]; [42]): 100 mg/kg/day | NOAEL (rat [18]; [42]): 100 mg/kg/day | LEL (rat [18]; [43]): 300 mg/kg/day | LOAEL (rat [18]; [43]): 300 mg/kg/day | NEL (rat [18]; [43]): 100 mg/kg/day | NOAEL (rat [18]; [43]): 100 mg/kg/day | LOAEL (mouse [19]; systemic / clinical chemistry / cholesterol / cholesterol + systemic / pathology microscopic / liver / hypertrophy): 171 mg/kg/day | NEL (mouse [19]; [44]): 85.2 mg/kg/day | NOAEL (mouse [19]; [44]): 85.2 mg/kg/day | LEL (mouse [19]; systemic / clinical chemistry / cholesterol / cholesterol + systemic / pathology microscopic / liver / hypertrophy + systemic / organ weight…): 171 mg/kg/day

Cc1ccccc1O [o-Cresol]
LEL (mouse [20]; [45]): 237 mg/kg/day | LOAEL (mouse [20]; [45]): > 3200 mg/kg/day | NOAEL (mouse [20]; [45]): ≥ 3200 mg/kg/day | LOAEL (mouse [20]; [46]): > 3200 mg/kg/day | NOAEL (mouse [20]; [46]): ≥ 3200 mg/kg/day | LEL (mouse [20]; [47]): 199 mg/kg/day | NEL (mouse [20]; [47]): < 199 mg/kg/day | LEL (rat [21]; [45]): 129 mg/kg/day | LOAEL (rat [21]; [45]): > 2020 mg/kg/day | NEL (rat [21]; [45]): < 129 mg/kg/day | NOAEL (rat [21]; [45]): ≥ 2020 mg/kg/day | LEL (rat [21]; [48]): 510 mg/kg/day | LOAEL (rat [21]; [48]): 1020 mg/kg/day | NEL (rat [21]; [49]): 247 mg/kg/day | NOAEL (rat [21]; [49]): 510 mg/kg/day | LEL (mouse [22]): 624 mg/kg/day | LOAEL (mouse [22]): > 624 mg/kg/day | NOAEL (mouse [22]): ≥ 624 mg/kg/day
